The source of these data is ChEMBL document CHEMBL1130685, “Anthelmintic beta-hydroxyketoamides (BKAs)” (1998).

Each structure is given as a SMILES string.

One experiment deals with Meriones unguiculatus. Description: Compound was evaluated for percentage clearance of Haemonchus contortus from jirds at dose of 25 mg/kg. Type of experiment: functional.
As for `CN1C(=O)C(=C(O)Nc2ccc(Br)cc2)C(=O)N(C)C1=O`, the Parasite_Clearance is 81%.

In another experiment the test system is Meriones unguiculatus. Description: Compound was evaluated for percentage clearance of Haemonchus contortus from jirds at the dose of 68 mg/kg. It is filed as functional.
`Cc1cc(O)c(C(=O)Nc2ccc(Br)cc2)c(=O)o1`: the Parasite_Clearance is recorded as 76%.

`O=C(Nc1ccc(Br)cc1)C1=C(O)c2ccccc2C1=O` returned a Parasite_Clearance of 100%.

In turn, `O=C(Nc1ccc(Br)cc1)c1c(O)c2ccccc2oc1=O` registered a Parasite_Clearance of 89%.

`O=C(Nc1ccc(Br)cc1)C1=C(O)C2C3C=CC(O3)C2C1=O` (stereo not given) yielded a Parasite_Clearance of 92%.

The compound `O=C(Nc1ccc(Br)cc1)c1c(O)c2cccnc2oc1=O` gave a Parasite_Clearance of 100%.

`O=C(Nc1ccc(Br)cc1)c1c(O)nc2sc(C(F)(F)F)nn2c1=O` registered a Parasite_Clearance of 82%.

As for `CN1C(=O)C(=C(O)Nc2ccc(Br)cc2)C(=O)N(C)C1=O`, the Parasite_Clearance worked out at 100%.

The compound `O=C(Nc1ccc(Br)cc1)C1=C(O)[C@@H]2[C@H](C1=O)[C@@H]1C=C[C@H]2C1` registered a Parasite_Clearance of 98%.

`Cn1c(=O)c(C(=O)Nc2ccc(Br)cc2)c(O)c2ccccc21` yielded a Parasite_Clearance of 81%.
